According to patent US12343326B2, “Psychoactive medicines and their use for treating psychiatric and neurological conditions and disorders” (Transcend Therapeutics, Inc., priority 2021, dated 2025):

Tests used:
5HT2C receptor = target: T1, 5HT2C receptor (Homo sapiens, UniProt P28335); test: GPCRmax screen, agonist mode; format: cell-based
T1 construct: beta-galactosidase enzyme fragment (PathHunter complementation tag); host or cells: PathHunter cell lines

[1] = target: serotonin transporter (SERT) (Rattus norvegicus, UniProt P31652); test: [3H]5HT uptake saturation in rat brain synaptosomes with or without methylone; format: biochemical; conditions: two concentrations of methylone
serotonin transporter (SERT), sequence (P31652 whole entry): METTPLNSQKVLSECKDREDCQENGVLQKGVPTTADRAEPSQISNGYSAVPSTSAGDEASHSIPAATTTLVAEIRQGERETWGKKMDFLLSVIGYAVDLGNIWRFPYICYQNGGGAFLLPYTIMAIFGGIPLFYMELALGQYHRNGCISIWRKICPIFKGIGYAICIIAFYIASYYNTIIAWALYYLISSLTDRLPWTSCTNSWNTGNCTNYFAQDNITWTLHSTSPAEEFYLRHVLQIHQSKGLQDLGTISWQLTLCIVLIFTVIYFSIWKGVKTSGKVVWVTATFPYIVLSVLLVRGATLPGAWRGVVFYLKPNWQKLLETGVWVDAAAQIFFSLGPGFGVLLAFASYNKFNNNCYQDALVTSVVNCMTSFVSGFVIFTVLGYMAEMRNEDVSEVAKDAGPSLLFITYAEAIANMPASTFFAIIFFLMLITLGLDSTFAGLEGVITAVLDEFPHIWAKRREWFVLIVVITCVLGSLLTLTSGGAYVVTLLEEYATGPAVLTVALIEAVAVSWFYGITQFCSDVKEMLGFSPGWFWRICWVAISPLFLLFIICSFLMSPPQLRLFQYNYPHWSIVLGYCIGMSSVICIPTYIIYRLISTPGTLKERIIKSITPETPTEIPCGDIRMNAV

participants with PTSD = test: IMPACT-1 Part A open-label study of methylone for PTSD; format: in vivo, human
Text: Brief Summary: This is a two-part study to assess methylone for the management of the symptoms of PTSD. Part A is an open-label, non-controlled assessment in up to 15 evaluable participants with PTSD to assess early safety and efficacy and to confirm procedures included in the blinded portion (Part B) of the study. After completion of Part A, enrollment for Part B will begin in up to 64 participants. Part B is identical to Part A with the exception of the inclusion of a placebo arm in Part B.
For each participant in Parts A and B, the study consists of: • Screening Period (Day −28 to Day −4): Informed consent, eligibility assessment, and enrolment of eligible participants. • Baseline/Preparatory Session (Day −3 to Day −1): Baseline assessments, confirmation of eligibility, and a preparatory psychoeducation session leading to enrolment confirmation. • Treatment Period (Day 1 to Day 24): Four weekly dose sessions, with associated remote sessions. The dose sessions last at least 8 hours, or until all effects (physical and psychological) have resolved (whichever is longer). Each dose session is followed by a safety phone call 1 day after dosing and efficacy assessments 2 days after dosing. Each dosing period is video recorded for quality and training purposes. The videos may be reviewed to ensure the Mentor is adhering to the Mentor training. • Follow-Up Period (Day 29 to Day 64): Follow-Up visits for safety and efficacy occur at 1, 2, 3 and 6 weeks post-final study drug administration. In addition, there are Mentor-Led Reflection Sessions 1, 2 and 3 weeks post-final study drug administration. Participants are contacted via telephone on Day 57 (±2 days) for Follow-Up. • Discontinuations: Participants who discontinue prematurely are asked to return for an extra visit to duplicate the 6-week end-of-study (EOS) visit.
Each dose was given as an initial dose, followed by a second dose 90 minutes later. During the dosing session, participants were accompanied by a trained Mentor who provided non-directive support. After the 4-week treatment period, participants attended follow-up visits at 1, 2, 3, and 6 weeks following the last dose. Safety was assessed via standard measures including adverse events. PTSD symptoms were assessed via Clinician-Administered PTSD Scale for DSM-5 (CAPS-5), depressive symptoms were assessed via Montgomery-Asberg Depression Rating Scale (MADRS). Anti-anxiety efficacy was evaluated using the Anxiety Sub-Scale of MADRS, namely, questions (Items 3, 4, 5, 6) that address four anxiety items (inner tension, reduced sleep, reduced appetite, concentration difficulties) Changes from baseline were analyzed using a paired t-test p-values.
Methods: The IMPACT-1 study is a multi-center, two-part clinical trial. Part A has completed and was an open-label evaluation involving 14 participants with PTSD. Eligible participants are adults with severe PTSD (CAPS-5≥35) who had failed at least 1 prior treatment (pharmacotherapy and/or psychotherapy) for PTSD. […] Throughout each dosing session, participants were provided non-directive psychological support by a trained mental health practitioner. Following the 4-week treatment period, participants were followed for an additional 6 weeks to evaluate the durability of the therapeutic effect. PTSD symptom improvement was evaluated on the CAPS-5. Functioning was assessed via the 3 domains (school/work, family life, social life) of the Sheehan Disability Scale (SDS). Global improvement was measured by the CGI-I. Safety was assessed by monitoring adverse events, vital signs, and C-SSRS.
Following the 4-week treatment period, participants were followed for an additional 6 weeks to evaluate the durability of the therapeutic effect. […]

[2] = tested on: rats with reserpine-induced pain sensitivity; test: Reserpine-induced fibromyalgia model, von Frey test; format: in vivo, rat; conditions: methylone 15 mg/kg IP, 30 min before testing, day 4 after reserpine
Procedure: Reserpine (1 mg/kg/s.c.) is administered for 3 days to mimic chronic widespread pain and complex symptoms.
In this Example, male Sprague Dawley rats are tested in a behavioral model of FMA based on the protocol from Nakagura et al. (2009) Pain 146:26. This model uses three daily doses of reserpine (1 mg/kg, SC) or 0.5% acetic acid vehicle to reduce pain thresholds (i.e., increase pain perception) in the Von Frey Test (vFT, procedure outlined below).
Von Frey Test (vFT) procedure: Increasing pain thresholds in this test are consistent with a reduction in pain perception. Prior to the start of dosing, rats are tested for their baseline mechanical pain threshold. For von Frey measurements, animals are placed into wire bottom cubicles with opaque Plexiglas walls, allowing access to the underside of their paws. Animals are habituated to this environment for at least 30 minutes before the start of the von Frey filament application. Static allodynia is measured using Semmes-Weinstein von Frey filaments (Stoelting, Wood Dale, IL). Mechanical allodynia is tested by touching the plantar surface of the animals' left and right hind paws with von Frey filaments which deliver a calibrated amount of force. Each von Frey filament is presented perpendicularly to the plantar surface for approximately 6 seconds of constant application in either ascending or descending strength in a modified up-and-down method (Chaplan et al. (1994) J Neurosci. Meth. 53:55). Stimulation is presented at intervals of several seconds, allowing for apparent resolution of any behavioral responses to previous stimuli. A positive response is noted if the paw is sharply withdrawn. Flinching immediately upon removal of the hair is also considered a positive response. […]
VonFrey measurements: Animals were placed into wire bottom cubicles with opaque Plexiglas walls, allowing access to the underside of their paws. […] Static allodynia was measured using Semmes-Weinstein von Frey filaments (Stoelting, Wood Dale, IL). […] The average hindpaw thresholds were determined 60-min post-injection. […]

T1 sequence (P28335 33-458): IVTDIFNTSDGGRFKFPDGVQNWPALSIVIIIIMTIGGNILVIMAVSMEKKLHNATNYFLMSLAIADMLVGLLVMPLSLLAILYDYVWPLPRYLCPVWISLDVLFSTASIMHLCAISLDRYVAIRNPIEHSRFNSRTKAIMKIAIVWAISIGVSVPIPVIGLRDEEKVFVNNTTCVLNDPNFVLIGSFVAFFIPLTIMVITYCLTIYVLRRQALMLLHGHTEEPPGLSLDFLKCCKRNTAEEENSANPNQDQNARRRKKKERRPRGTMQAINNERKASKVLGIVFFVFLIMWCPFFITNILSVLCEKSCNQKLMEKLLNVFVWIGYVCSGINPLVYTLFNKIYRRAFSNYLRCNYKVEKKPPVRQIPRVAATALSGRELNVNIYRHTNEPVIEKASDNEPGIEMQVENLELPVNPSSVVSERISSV

## CNC(C)C(=O)c1ccc2c(c1)OCO2 (centres unmarked) [methylone, 3,4-methylenedioxy-N-methylcathinone]
5HT2C receptor; 1 or 10 mM, threshold 30%
  agonist % activity: no agonist or antagonist activity
5HT2C receptor; HTR2C, Agonist mode, 10 uM
  activity at 10 µM: 3.7%
5HT2C receptor; HTR2C, Agonist, 1 uM
  activity at 1 µM: 1.4%
[1]; [3H]5HT saturation curves
  type of interaction at the SERT: competitive
[1]
  effect on Bmax of [3H]5HT uptake: no decrease in Bmax
  effect on Kd of [3H]5HT uptake: right shifted
Participants with PTSD; Day 3
  CAPS-5 scores decreased by: 8.4 points
  MADRS scores decreased by: 8.2 points
Participants with PTSD; Safety Population, N = 14
  drug-related SAEs: No drug-related SAEs occurred
Participants with PTSD; after treatment
  participants with absence of Distressing Dreams symptom: 77%
  participants with absence of Reduced Sleep symptom (MADRS): 62%
  participants with absence of Sleep Disturbances symptom: 62%
Participants with PTSD; end of the study
  participants much or very much improved (CGI-I): all participants
[2]
  paw withdrawal thresholds (von Frey): significantly increased paw withdrawal thresholds
